Measurements as given in PubChem BioAssay (NCI).
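Cells were grown in 96-well plates and exposed to each compound for 48 hours at five concentrations; endpoints were interpolated linearly between bracketing concentrations, or set to the highest concentration if not reached. GI50 = concentration required for 50% inhibition of growth. TGI marks complete inhibition of growth.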

Experiments:
Test in all cases: NCI tumour cell line growth inhibition, 48 h
A498 renal = system: A498 renal
A549 NSCLC = system: A549 NSCLC
HCC-2998 colon = system: HCC-2998 colon
HOP-92 NSCLC = system: HOP-92 NSCLC
M14 melanoma = system: M14 melanoma
MALME-3M melanoma = system: MALME-3M melanoma
SK-MEL-28 melanoma = system: SK-MEL-28 melanoma
SK-OV-3 ovarian = system: SK-OV-3 ovarian
MCF7 breast = system: MCF7 breast
MDA-MB-231 breast = system: MDA-MB-231 breast

Row | Structure (SMILES) | TGI (A498 renal) [µM] | TGI (A549 NSCLC) [µM] | TGI (HCC-2998 colon) [µM] | TGI (HOP-92 NSCLC) [µM] | TGI (M14 melanoma) [µM] | TGI (MALME-3M melanoma) [µM] | TGI (SK-MEL-28 melanoma) [µM] | TGI (SK-OV-3 ovarian) [µM] | TGI (MCF7 breast) [µM] | TGI (MDA-MB-231 breast) [µM] | GI50 (A498 renal) [µM] | GI50 (A549 NSCLC) [µM] | GI50 (HCC-2998 colon) [µM] | GI50 (M14 melanoma) [µM] | GI50 (MALME-3M melanoma) [µM] | GI50 (MCF7 breast) [µM] | GI50 (MDA-MB-231 breast) [µM] | GI50 (SK-MEL-28 melanoma) [µM] | GI50 (SK-OV-3 ovarian) [µM]
1 | C=C1CC(CCCl)(c2ccccc2)OC1=O (stereo not drawn) | > 100 | > 100 | > 100 | 34.2 | 38.6 | 56.8 | 22.2 | > 100 |  |  |  |  |  |  |  |  |  |  | 
2 | O=C(O)/C(=C/c1ccccc1[N+](=O)[O-])c1ccccc1 | > 100 | > 100 | > 100 |  | > 100 |  | > 100 | > 100 |  |  |  |  |  |  |  |  |  |  | 
3 | N=C(c1ccccc1)N(O)C1CCCCC1 |  | > 100 | > 100 | > 100 | > 100 | > 100 | > 100 |  |  |  |  |  |  |  |  |  |  |  | 
4 | CN(C)CCn1c2ccccc2c2nc3cc4ccccc4cc3nc21 | 8.11 | 16.9 | 17.7 |  | 16.4 | 25.2 | 21.9 | 23.4 |  |  |  |  |  |  |  |  |  |  | 
5 | O=c1/c(=C/c2ccc(Cl)cc2Cl)sc2nc3ccccc3n12 | > 100 | > 100 | > 100 | > 100 | > 100 | > 100 | > 100 | > 100 |  |  |  |  |  |  |  |  |  |  | 
6 | CC(=O)N1CC2Nc3ccccc3C2CC1CO (stereo not drawn) | > 100 | > 100 | > 100 | > 100 | > 100 | > 100 | > 100 | > 100 |  |  |  |  |  |  |  |  |  |  | 
7 | O=C1Nc2ccccc2C1Cc1ccccc1 (stereo not drawn) | > 100 | > 100 | > 100 | > 100 | > 100 | > 100 | > 100 | > 100 | > 100 |  |  |  |  |  |  |  |  |  | 
8 | O=[N+]([O-])c1ccccc1N=Nc1c(O)[nH]c2ccccc12 | > 61.6 | > 100 | > 100 |  | > 100 |  | > 100 | > 53.7 | > 100 | > 47.3 |  |  |  |  |  |  |  |  | 
9 | COc1cc2c(c(OC)c1OC)-c1[nH]ncc1CC2 | > 100 | > 100 | > 100 | > 100 | > 100 | > 100 | > 100 | > 100 |  |  |  |  |  |  |  |  |  |  | 
10 | Cn1c(CCC#N)nc2ccc(Br)cc2c1=O | > 100 | > 100 | > 100 | > 100 | > 100 | > 100 | > 100 | > 100 |  |  |  |  |  |  |  |  |  |  | 
11 | COc1ccc(O)c(C(=O)c2ccc(C(=O)O[C@@H]3CCCNC[C@H]3NC(=O)c3ccncc3)cc2)c1F | 1.6 | > 25 | > 25 |  | > 25 | > 25 | > 25 | > 25 | > 25 | > 25 | 0.189 | 0.592 | 2.08 | 1.2 | 1.57 | 0.275 | > 10.3 | 2.73 | 0.946
12 | CC(C)C(=O)N[C@@H](C)C(=O)N(Cc1ccc2ccccc2c1)N=O | > 100 | > 100 | > 100 |  | > 100 | > 100 | > 100 | > 100 |  |  |  |  |  |  |  |  |  |  | 
13 | Nc1ccc(Nc2nc(F)nc(-c3c4ccccc4c4n3CCS4)n2)cc1 |  | 31.2 | 44.8 | 30.5 | 31.6 | 31.6 | 33.3 | 31.1 |  |  |  |  |  |  |  |  |  |  | 
